Reference: US20240391978A1, “APOLIPOPROTEIN FUSION PROTEINS FOR CELL-SPECIFIC IMMUNE REGULATION” (BIO-TRIP B.V., priority 2021, published 2024)
Entries after “also recorded” stand apart in the source; their conditions may differ. Each block holds one molecule with its values, some of them ahead of it.

What was measured:
[1] = test system: HEK-Blue™ IL4/IL13 cells; assay: Human embryonic kidney 293 IL4 reporter cell assay (Example 2); assay type: cell-based; details: IL4Rα/STAT6-inducible reporter
Procedure: This cell line has a fully active STAT6 pathway and carries a STAT6-inducible SEAP reporter gene. […] The levels of secreted SEAP can be determined with QUANTI-Blue™ (Invivogen). 180 μL DMEM with 10% FBS and 1% Pen-Strep containing […] was added per well in a 96-well-plate. Subsequently, 20 μL stimulus or vehicle was added and cells were incubated for 20-24 hours at 37° C. Subsequently, 180 μL QUANTI-Blue was added per well to a separate 96-well-plate (flat-bottom) and 20 μL of the cell supernatant was added. The plate was incubated for 1-3 hours at 37° C. and absorbance at 640 nm was measured on a Tecan Spark plate reader to determine SEAP levels.

[2] = test system: primary human monocytes; assay: In vitro inflammation inhibition, LPS-stimulated monocytes; assay type: cell-based; details: 1 hour pre-incubation with inhibitor (Table 2), IL4 + LPS 24 h
Procedure: (§1) For pharmacological inhibition experiments, the monocytes were pre-incubated for 1 hour with one of the inhibitors described in Table 2 before addition of the training stimulus.
In vitro inflammation inhibition: Monocytes were adhered to a flat-bottom cell culture plate for 1 hour and washed with warm PBS to remove any non-adherent cells and cell debris. […] Following the initial 24-hour stimulation, the supernatants were collected and stored at −20° C. until further analysis with ELISA for IL6 and TNF.
(§2) Cytokine and lactate measurements: TNF, IL6, and IL1Ra were measured in cell culture supernatants using duoset ELISA kits (R&D systems), according to the manufacturer's instructions. For lactate measurements, a fluorometric assay was used. 30 μl sample, medium control, or known standard was added to a black 96-well plate. Then, 30 μl reaction mix (PBS pH 7.4, horse radish peroxidase (0.2 U/ml), lactate oxidase (2 U/ml), Amplex red (100 μM; Fisher scientific)) was added and the reaction was incubated for 20 minutes in the dark at RT. Immediately thereafter, fluorescence was measured at 530/25 nm and 590/35 nm. Gen5 software (v3.03, BioTek) was used in conjunction with Microsoft Excel to calculate cytokine and lactate concentrations in the original samples.

[3] = test system: primary human monocytes; assay: In vitro model of trained immunity in primary human monocytes; assay type: cell-based; details: 1 hour pre-incubation with inhibitor (Table 2) before IL4 training
Text: In vitro model of trained immunity in primary human monocytes: To induce trained immunity in primary human monocytes, a previously optimized and published method was used (Dominguez-Andres, J. et al. In vitro induction of trained immunity in adherent human monocytes. STAR Protoc 2, 100365, doi:10.1016/j.xpro.2021.100365 (2021); van Lier, D., Geven, C., Leijte, G. P. & Pickkers, P. Experimental human endotoxemia as a model of systemic inflammation. Biochimie 159, 99-106, doi:10.1016/j.biochi.2018.06.014 (2019)). Briefly: monocytes were adhered to a flat-bottom cell culture plate for 1 hour and washed with warm PBS to remove any non-adherent cells and cell debris. Then, they were stimulated (“trained”) for 24 hours with one of the stimuli detailed in Table 1, or medium only (“untrained” control).
as §1
Following the initial 24-hour stimulation, the cells were washed with warm PBS and warm cell culture medium was added. The monocytes were then allowed to rest and differentiate into macrophages for 5 days. On day 6, the induction of trained immunity was assessed. To this end, the cells were typically re-stimulated with LPS for an additional 24 hours to elicit cytokine production. The supernatants were collected and stored at −20° C. until further analysis, e.g. with ELISA for IL6 and TNF.
as §2

[4] = biological target: T1, IL4 receptor in human monocytes (Homo sapiens, UniProt P24394); assay: Super-resolution fluorescence microscopy (dSTORM) of interactions with IL4 receptor; assay type: cell-based
T1 construct: Human monocytes were isolated from a healthy donor's peripheral blood as described above; endogenous in cells; host or cells: primary human monocytes from a healthy donor's peripheral blood
T1 sequence (P24394 26-825): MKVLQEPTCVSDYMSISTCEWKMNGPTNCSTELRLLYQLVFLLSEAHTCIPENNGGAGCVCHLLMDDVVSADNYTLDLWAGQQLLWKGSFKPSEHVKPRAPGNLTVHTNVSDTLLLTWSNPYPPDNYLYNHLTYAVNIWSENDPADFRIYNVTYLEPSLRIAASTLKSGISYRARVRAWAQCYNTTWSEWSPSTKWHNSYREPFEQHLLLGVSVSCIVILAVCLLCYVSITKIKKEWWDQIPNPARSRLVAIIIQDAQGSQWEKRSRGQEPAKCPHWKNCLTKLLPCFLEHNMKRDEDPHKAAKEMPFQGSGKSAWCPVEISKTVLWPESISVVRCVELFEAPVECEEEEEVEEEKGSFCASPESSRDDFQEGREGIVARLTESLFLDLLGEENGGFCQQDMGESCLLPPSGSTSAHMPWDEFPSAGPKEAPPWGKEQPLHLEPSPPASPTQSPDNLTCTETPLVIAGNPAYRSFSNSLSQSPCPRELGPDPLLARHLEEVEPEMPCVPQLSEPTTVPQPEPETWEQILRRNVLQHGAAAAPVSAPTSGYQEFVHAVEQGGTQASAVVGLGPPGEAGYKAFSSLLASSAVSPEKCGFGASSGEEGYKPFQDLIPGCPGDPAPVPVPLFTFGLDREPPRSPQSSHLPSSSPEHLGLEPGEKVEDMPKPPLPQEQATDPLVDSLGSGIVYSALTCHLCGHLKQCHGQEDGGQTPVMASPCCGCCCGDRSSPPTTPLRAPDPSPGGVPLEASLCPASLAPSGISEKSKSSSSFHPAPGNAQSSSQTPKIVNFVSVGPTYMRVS
Procedure: 100,000 monocytes were seeded per well on a cell culture-treated chambered coverslip (μ-Slide 8-well, IBID). After 2 hours of incubation at 37° C. […] Subsequently, the cells were washed with PBS and fixed with 4% PFA for 20 minutes. […] The stained cells were stored in PBS at 4° C. For the direct stochastic optical reconstruction microscopy (dSTORM), the cells were immersed in GLOXY imaging buffer (40 μg/ml catalase, 0.5 mg/ml glucose oxidase, 5% glucose and 0.01 M cysteamine in PBS, pH 8.0) for a few minutes before and during the imaging. The acquisition was performed in Total Internal Reflection Fluorescence (TIRF) mode, using ONI Nanoimager (ONI, Oxford, UK). It is equipped with a 100×/1.4NA oil immersion objective, a sCMOS camera, and, in this study, 488 nm (200 mW) and 640 nm (1000 mW) lasers were used. 10000 frames were acquired with a 10 ms exposure time with the field of view of 50×80 μm. Raw data were processed using the ThunderSTORM software, yielding images with a spatial resolution of 10 nm.

[5] = biological target: T2, CD8 receptor (Mus musculus, UniProt P01731+P10300); assay: In vitro binding of VHHCD8-apoA1 in mice splenocytes; assay type: cell-based; details: 30 minutes at 4° C.
T2 construct: Spleens were obtained from mice, cut into pieces, and strained through a 70 μm strainer; from tissue; host or cells: mouse spleen (freshly isolated splenocytes)
T2 sequence (P01731 28-247): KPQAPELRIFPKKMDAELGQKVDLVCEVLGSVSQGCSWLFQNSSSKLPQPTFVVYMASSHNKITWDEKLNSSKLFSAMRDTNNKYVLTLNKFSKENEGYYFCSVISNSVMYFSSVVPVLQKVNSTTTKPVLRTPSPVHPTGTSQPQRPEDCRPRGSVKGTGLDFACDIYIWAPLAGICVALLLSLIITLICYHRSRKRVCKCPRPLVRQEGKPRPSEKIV
T2 sequence (P10300 22-213): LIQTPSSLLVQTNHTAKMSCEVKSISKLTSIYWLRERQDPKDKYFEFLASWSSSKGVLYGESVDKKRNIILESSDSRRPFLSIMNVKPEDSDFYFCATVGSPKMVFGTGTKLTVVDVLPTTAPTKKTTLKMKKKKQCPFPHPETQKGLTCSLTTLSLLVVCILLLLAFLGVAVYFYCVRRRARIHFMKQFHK
Procedure: In vitro binding of VHHCD8-apoA1 in mice splenocytes: Spleens were obtained from mice, cut into pieces, and strained through a 70 μm strainer (Corning) multiple times to obtain a splenocyte suspension. Cells were spun down at 1500 rpm for 10 minutes, the supernatant was removed and the cells were dissolved in 2 mL 1× red blood cell lysis buffer (Thermofisher). Suspension was incubated at room temperature for 5 minutes, 10 mL Roswell Park Memorial Institute (RPMI) medium (Thermofisher) was added, and cells were again spun down at 1500 rpm for 10 minutes. Cells were then redissolved in RPMI medium and plated in a 96 wells plate at 150.000 cells/well.
The proteins were labeled by adding sulfo-cyanine5-maleimide (Lumiprobe) in dimethyl sulfoxide (DMSO) at a 5× molar excess. This mixture was incubated at room temperature for 2 hours. Excess dye was removed using a PD minitrap G-25 desalting column (Cytiva). Fluorescently labeled aNPs were formulated by adding 6.4 μg Dil for discoidal formulations and 21 μg Dil for spherical formulations (see section “formulating nanoparticles” of Example 2). […] (for aNPs) after which cells were harvested, washed, and stained for CD3 and CD4 and measured on Cytoflex (Beckman Coulter Inc.). Flow cytometry data was analyzed using FlowJo software (BD).

[6] = biological target: T3, CD8 receptor on mouse splenocytes (mouse, UniProt P01731 28-247; P10300 22-213); assay: flow cytometry, fluorescently labelled protein on mouse splenocytes; upper panel 'MFI APC (CD8+) of CD3+ T cells'
T3 construct: whole, on cells
T3 sequence (P01731 28-247, chain 1 of 2): as the sequence (P01731 28-247) above
T3 sequence (P10300 22-213, chain 2 of 2): as the sequence (P10300 22-213) above
Procedure: The proteins were labeled by adding sulfo-cyanine5-maleimide (Lumiprobe) in dimethyl sulfoxide (DMSO) at a 5× molar excess. This mixture was incubated at room temperature for 2 hours. Excess dye was removed using a PD minitrap G-25 desalting column (Cytiva). […] Fluorescently labeled fusion proteins or aNPs and controls were added to the wells and incubated for 30 minutes at 4° C. (for proteins) or 37° C. (for aNPs) after which cells were harvested, washed, and stained for CD3 and CD4 and measured on Cytoflex (Beckman Coulter Inc.). Flow cytometry data was analyzed using FlowJo software (BD).

Molecule: apoA1-IL4: fusion protein of human apoA1 and human IL4 via flexible linker, 6his-tag and strep-tag (e.g. SEQ ID NO. 35)
- SEAP production by HEK-IL4 reporter cells [1]: prominently produced

Molecule: CCC(=O)N1CCN(c2ccc(-n3c(=O)ccc4cnc5ccc(-c6cnc7ccccc7c6)cc5c43)cc2C(F)(F)F)CC1 [torin-1, Torin-1, reference compound]
- effect of inhibitor on IL4's inhibition of acute inflammation (TNF, IL6) [2]: did not abrogate the effect of IL4 on acute inflammation
- effect of inhibitor on trained immunity induction by IL4 (TNF, IL6) [3]: diminished the trained immunity responses; also recorded: significantly blunted

Molecule: NC(=O)c1cnc(NCCc2ccc(O)c(Cl)c2)nc1NCc1ccccc1 [AS1517499, reference compound]
- effect of inhibitor on IL4's inhibition of acute inflammation (TNF, IL6) [2]: partly restored cytokine production in acute inflammatory responses
- effect of inhibitor on trained immunity induction by IL4 (TNF, IL6) [3]: did not affect trained immunity induction by IL4

- binding to primary human monocytes (rim covering the cell surface) ([4]; Cy5-labeled, 2 h at 37° C.): confirmed
- association with IL4Rα on the cell surface (co-clusters) ([4]; zoomed in section of the membrane): did not observe
Molecule: apoA1
- Mean Fluorescence Intensity (MFI) of fluorescently labeled protein [5]: did not show this dose dependent behavior

- EC50 (read off the curve) [6]: ~5 nM
B1: VHHCD8-apoA1 fusion protein (VHH)
VHH: QVQLQESGGGLVQAGGSLRLSCAASGFTFDDYAIGWFRQAPGKEREGVSCINNSDGSGYVADSVKGRFTISSDNAKNTVYLQMNSLKPEDTAVYYCAAAGDGGCYYGLDYWGKGTQVTVSS
modifications: labelled with sulfo-cyanine5-maleimide (the linker between apoA1 and VHHCD8 comprises a cysteine)
notes: Fusion of an anti-CD8 VHH with apoA1, expressed in ClearColi; molecular weight 43.3 kDa
